Measured values: patent publication US20230357271A1, “MACROCYCLIC COMPOUND” (Asahi Kasei Pharma Corporation, priority 2020, published 2023)
Where two headings read alike, the source gives them in different places.

What was measured:
[1] = 14-membered ring
[2] = test system: human acute monocytic leukemia cell strain THP-1; test: LPS-stimulated TNFα production inhibition test using THP-1 cells; format: cell-based; settings: Homo sapiens, THP-1, 4 h, LPS 2.5 ng/mL, TNFα by HTRF
Procedure: By the THP-1 assay, influence of a test compound on the TNFα production induced by LPS stimulation can be evaluated. The THP-1 cells (ATCC, Cat. TIB-202) were inoculated on a 96-well plate at a density of 1 × 10^5 cells/160 µL/well, a test compound was added in a volume of 20 µL, and the plate was incubated at 37° C. for 1 hour in a 5% CO2 incubator. Then, LPS in a volume of 20 µL (final concentration 2.5 ng/mL, Sigma, Cat. L2630) was added, and the plate was further incubated for 4 hours. After the incubation, the plate was centrifuged, and 100 µL of the supernatant was taken from each well, and used for evaluation of the amount of TNFα using HTRF (Cisbio, Cat. 62TNFPEB). In the measurement of the amount of TNFα, the supernatant was diluted twice with the medium, and then added to wells of a 384-well plate in a volume of 10 µL, then anti-TNFα-cryptate (5 µL), and anti-TNFα-XL665 (5 µL) were added, and the plate was left standing overnight. The fluorescence intensity ratio for the wavelengths of 620 and 665 nm (620 nm/665 nm) was measured with a microplate reader, and the amount of TNFα in the supernatant was calculated by using a calibration curve. The TNFα production suppression ratio observed with no addition of LPS was defined to be 100%, the TNFα production suppression ratio observed with no addition of the test compound was defined to be 0%, and IC50 of the test compound was calculated by using the 4-parameter logistic model of the data analysis software XLfit (ID Business Solutions Ltd.).
When the measurement was performed in multiplicate, the results are represented with average values. The values were rounded to the fourth decimal place.

[3] = target: human IRAK-4 (Homo sapiens (Human), UniProt Q9NWZ3); test: Measurement of human IRAK-4 inhibitory activity (TR-FRET); format: biochemical; settings: 1 nM IRAK-4, 0.5 µM peptide substrate, 10 µM ATP, 23° C., 30 minutes
Procedure: For the measurement of the activity of the human IRAK-4 (Invitrogen, Cat. PV3362), phosphorylation of the IRAK-4 peptide substrate (biotin-KKKKRFSFKKSFKC) by the enzyme in the presence of 10 µM ATP (Sigma-Aldrich, Cat. A7699) was measured by the TR-FRET method. The enzymatic reaction was performed in a reaction buffer containing 50 mM HEPES (pH 7.2), 1 mM DTT, 0.1 mM Na3VO4, 5 mM MgCl2, 1 mM MnCl2, and 0.1% bovine serum albumin. For the measurement of the IRAK-4 inhibitory activity, a test compound was added to the reaction buffer containing 1 nM IRAK-4, 0.5 µM peptide substrate, and 10 µM ATP, and the mixture was incubated at 23° C. for 30 minutes. Then, a detection solution containing an antibody labeled with europium cryptate (0.3 µg/mL, the antibody was prepared by using the IRAK-4 peptide substrate as the antigen), streptavidin-XL665 (2 µg/mL, CisBio, Cat. 610SAXLB), 50 mM HEPES (pH 7.2), 0.1% BSA, 120 mM KF, and 66.7 mM EDTA (all the concentrations of the reagents are final concentrations) was added to terminate the reaction, and then the mixture was further incubated at 23° C. for 60 minutes. Fluorescence intensity was measured at wavelengths of 665 nm and 620 nm with a microplate reader, and the enzymatic activity was calculated as the ratio of fluorescence intensities at 665 nm and 620 nm (665 nm/620 nm).
When the measurement was performed in multiplicate, the results are represented with average values.

Chain of human IRAK-4 (Q9NWZ3 whole entry): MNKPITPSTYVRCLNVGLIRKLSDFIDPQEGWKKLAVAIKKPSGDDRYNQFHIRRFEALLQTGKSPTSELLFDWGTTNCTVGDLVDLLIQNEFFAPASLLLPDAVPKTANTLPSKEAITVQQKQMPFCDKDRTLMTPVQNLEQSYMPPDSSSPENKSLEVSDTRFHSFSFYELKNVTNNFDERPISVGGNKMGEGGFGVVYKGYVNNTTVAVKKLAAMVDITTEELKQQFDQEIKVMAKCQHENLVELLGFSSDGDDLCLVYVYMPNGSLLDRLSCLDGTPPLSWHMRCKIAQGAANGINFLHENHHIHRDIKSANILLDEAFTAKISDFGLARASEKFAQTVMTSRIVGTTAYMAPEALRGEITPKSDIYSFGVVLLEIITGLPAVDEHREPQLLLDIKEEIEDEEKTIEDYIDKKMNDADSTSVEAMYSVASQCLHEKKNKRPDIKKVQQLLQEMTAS

Row | SMILES | IC50 [2] [µM] | IC50 [3] [nM] | other results
1 | CC(C)(C)OC(=O)N1CC[C@H]2C[C@H]1C(=O)NCCCCc1c(OCc3ccccc3)ccc3ncc(cc13)N2 |  |  | ring closure, yield of all isomers (from CC(C)(C)OC(=O)N1CC[C@H](N)C[C@H]1C(=O)NCCCCc1c(OCc2ccccc2)ccc2ncc(Br)cc12, cn_pd bond, tBuBrettPhos Pd G3 / phosphazene base P2-Et, toluene, 29.3 mM, 25.0 °C): 39%
2 | CC(C)(C)OC(=O)N1CC[C@H]2C[C@H]1C(=O)NCCCOc1c(Br)ccc3ncc(nc13)N2 |  |  | ring closure, yield of all isomers (from CC(C)(C)OC(=O)N1CC[C@H](Nc2cnc3ccc(Br)c(O)c3n2)C[C@H]1C(=O)NCCCO, ether bond, PPh3 / di-tert-butyl azodicarboxylate, tetrahydrofuran, 4.91 mM, 25.0 °C, 12.0 h): 61%; ring closure, yield of all isomers (from CC(C)(C)OC(=O)N1CC[C@H](Nc2cnc3ccc(Br)c(O)c3n2)C[C@H]1C(=O)NCCCO, ether bond, PPh3 / di-tert-butyl azodicarboxylate, tetrahydrofuran, 4.92 mM, 25.0 °C, 2.0 h): 70%; ring closure, isolated yield ([1]; from CC(C)(C)OC(=O)N1CC[C@H](Nc2cnc3ccc(Br)c(O)c3n2)C[C@H]1C(=O)NCCCO, ether bond, PPh3/DTBAD, THF, 5.0 mM, 25.0 °C, 2.0 h): 70%; ring closure, isolated yield ([1]; from CC(C)(C)OC(=O)N1CC[C@H](Nc2cnc3ccc(Br)c(O)c3n2)C[C@H]1C(=O)NCCCO, ether bond, PPh3/DTBAD, THF, 5.0 mM, 25.0 °C, 12.0 h): 61%
3 | CC(C)(C)OC(=O)N1CC[C@H]2C[C@H]1C(=O)NCCCOc1c(OCc3ccccc3)ccc3ncc(cc13)O2 |  |  | ring closure, isolated yield ([1]; from CC(C)(C)OC(=O)N1CC[C@@H](O)C[C@H]1C(=O)NCCCOc1c(OCc2ccccc2)ccc2ncc(O)cc12, ether bond, PPh3/DTBAD, toluene, 11.0 mM, 1.5 h): 72%
4 | CC(C)(C)OC(=O)N1CC[C@H]2C[C@H]1C(=O)OCCCOc1c(OCc3ccccc3)ccc3ncc(cc13)N2 |  |  | ring closure, yield of all isomers (from CC(C)(C)OC(=O)N1CC[C@H](N)C[C@H]1C(=O)OCCCOc1c(OCc2ccccc2)ccc2ncc(Br)cc12, cn_pd bond, tBuXPhos Pd G3 / Cs2CO3, 1,4-dioxane, 98.8 mM, 120.0 °C, 72.0 h): 7%; ring closure, isolated yield ([1]; from CC(C)(C)OC(=O)N1CC[C@H](N)C[C@H]1C(=O)OCCCOc1c(OCc2ccccc2)ccc2ncc(Br)cc12, cn_pd bond, tBuXPhos Pd G3/Cs2CO3, 1,4-dioxane, 98.8 mM, 120.0 °C, 72.0 h): 7%
5 | CC1CC2C[C@@H](C(=O)NCC/C=C/c3c(OCc4ccccc4)ccc4ncc(cc34)N2)N1C (some centres unmarked) |  |  | ring closure, yield of all isomers (from CC1CC(N)C[C@@H](C(=O)NCC/C=C/c2c(OCc3ccccc3)ccc3ncc(Br)cc23)N1C, cn_pd bond, Pd2(dba)3 / XPhos / sodium phenoxide, 1,4-dioxane, 97.4 mM, 101.0 °C, 14.0 h): 75%
6 | CC1CC2C[C@@H](C(=O)NCCC=Cc3c(OCc4ccccc4)ccc4ncc(cc34)N2)N1C (some centres unmarked) |  |  | ring closure, isolated yield ([1]; from CC1CC(N)C[C@@H](C(=O)NCC/C=C/c2c(OCc3ccccc3)ccc3ncc(Br)cc23)N1C, cn_pd bond, Pd2(dba)3/XPhos/NaOPh, 1,4-dioxane, 97.4 mM, 14.0 h): 75%
7 | CN1CCC2CC1(C)C(=O)NCC(F)COc1c(OCc3ccccc3)ccc3ncc(cc13)N2 (centres unmarked) |  |  | ring closure, yield of all isomers (from CN1CCC(N)CC1(C)C(=O)NCC(F)COc1c(OCc2ccccc2)ccc2ncc(Br)cc12, cn_pd bond, Pd2(dba)3 / XPhos / sodium phenoxide, 1,4-dioxane, 107.0 mM, 101.0 °C, 14.0 h): 32%
8 | Cc1ncc(-c2ccc3ncc4nc3c2OCCCN(C)C(=O)[C@@H]2C[C@H](CCN2C)N4)cn1 [a-01-42] | 0.246 | 6.61 | 
9 | CN1CC[C@H]2C[C@H]1C(=O)NCC1(CCC1)COc1c(-c3cnc(CO)s3)ccc3ncc(nc13)N2 [a-01-44] | 0.21 | 2.36 | 
10 | CCCOCc1ncc(-c2ccc3ncc4cc3c2OCC(F)CNC(=O)[C@@H]2C[C@H](CCN2C)N4)cn1 (some centres unmarked) [a-02-02, (3^2S,3^4S)-7-Fluoro-3^1-methyl-1^6-(2-(propoxymethyl)pyrimidin-5-yl)-9-oxa-2,5-diaza-1(3,5)-qunolina-3(4,2)-piperidinacyclononaphan-4-one] | 0.013 | 1.09 | 
11 | CN1CC[C@H]2C[C@H]1C(=O)OCCCOc1c(-c3cnc(COCC(O)C4CC4)nc3)ccc3ncc(cc13)N2 (some centres unmarked) [a-02-04] | 0.023 | 5.63 | 
12 | [2H]C([2H])([2H])N1CC[C@H]2C[C@H]1C(=O)NCC(F)COc1c(-c3cnc(COCCC)nc3)ccc3ncc(cc13)N2 (some centres unmarked) [a-02-06] | 0.024 | 2 | 
13 | Cc1ncc(-c2ccc3ncc4cc3c2OCCCOC(=O)C2CC(CC(C)N2C)N4)cn1 (centres unmarked) [a-02-07] | 0.033 | 2.04 | 
14 | CCC(O)COCc1ncc(-c2ccc3ncc4cc3c2OCCCOC(=O)[C@@H]2C[C@H](CCN2C)N4)cn1 (some centres unmarked) [a-02-08] | 0.036 | 5.73 | 
15 | Cc1ncc(-c2ccc3ncc4cc3c2OCC(F)CNC(=O)[C@@H]2C[C@H](CC(C)N2C)N4)cn1 (some centres unmarked) [a-02-09] | 0.036 | 0.86 | 
16 | CCCOCc1ncc(-c2ccc3ncc4cc3c2OCCCOC(=O)[C@@H]2C[C@H](CCN2C)N4)cn1 [a-02-10] | 0.043 | 2.96 | 
17 | O=C1OCCCOc2c(-c3cnc(CO)nc3)ccc3ncc(cc23)N[C@H]2CCN[C@H]1C2 [a-02-12] | 0.047 | 0.93 | 
18 | Cc1ncc(-c2ccc3ncc4cc3c2OCC(F)CNC(=O)[C@@H]2C[C@H](CCN2C(C)C)N4)cn1 (some centres unmarked) [a-02-13] | 0.048 | 1.12 | 
19 | Cc1ncc(-c2ccc3ncc4cc3c2OCC(F)CNC(=O)[C@@H]2C[C@H](CCN2C)N4)cn1 (some centres unmarked) [a-02-16] | 0.065 | 0.81 | 
20 | Cc1ncc(-c2ccc3ncc4cc3c2OCCCOC(=O)[C@@H]2C[C@H](CCN2)N4)cn1 [a-02-18] | 0.081 | 1.66 | 

The remaining compounds from weak to strong by IC50 [2], led by results:

Row | IC50 [2] [µM] | IC50 [3] [nM] | SMILES | other results
21 | 0.716 | 9.7 | Cc1ncc(-c2ccc3ncc4cc3c2OCC(F)CNC(=O)C2(C)CC(CCN2C)N4)cn1 (centres unmarked) [a-02-23, 7-Fluoro-3^1,3^2-dimethyl-1^6-(2-methylpyrimidin-5-yl)-9-oxa-2,5-diaza-1 (3,5)-qunolina-3(4,2)-piperidinacyclononaphan-4-one] | 
22 | 0.378 | 13.2 | CCCOCc1ncc(-c2ccc3ncc4cc3c2CCCCNC(=O)[C@@H]2C[C@H](CCN2C)N4)cn1 [a-02-24, (3^2S,3^4S)-3^1-Methyl-1^6-(2-(propoxymethyl)pyrimidin-5-yl)-2,5-diaza-1(3,5)-qunolina-3(4,2)-piperidinacyclononaphan-4-one] | 
23 | 0.227 | 3.28 | COCc1ncc(-c2ccc3ncc4nc3c2OCCCNC(=O)[C@@H]2C[C@H](CCN2C)N4)cn1 [a-01-45] | 
24 | 0.135 | 2.2 | Cc1ncc(-c2ccc3ncc4cc3c2OCCCNC(=O)[C@@H]2C[C@H](CCN2C)N4)cn1 [a-02-21] | 
25 | 0.117 | 3.21 | Cc1ncc(-c2ccc3ncc4cc3c2OCCCOC(=O)[C@@H]2C[C@H](CCN2C)N4)cn1 [a-02-20] | 
26 | 0.102 | 3.9 | Cc1ncc(-c2ccc3ncc4cc3c2OCC2(CC2)COC(=O)[C@@H]2C[C@H](CCN2C)N4)cn1 [a-02-19] | 
27 | 0.064 | 2.23 | CN1CC[C@H]2C[C@H]1C(=O)OCCCOc1c(-c3cnc(CO)nc3)ccc3ncc(cc13)N2 [a-02-15] | 
28 | 0.058 | 6.46 | CCCOCc1ncc(-c2ccc3ncc4cc3c2OCC(F)COC(=O)[C@@H]2C[C@H](CCN2C)N4)cn1 (some centres unmarked) [a-02-14] | 
29 | 0.023 | 2.47 | CCCOCc1ncc(-c2ccc3ncc4cc3c2OCCCOC(=O)[C@@H]2C[C@H](CCN2)N4)cn1 [a-02-05] | 
30 | 0.013 | 2.51 | O=C1OCCCOc2c(-c3cnc(CO[C@H]4CCC[C@@H]4O)nc3)ccc3ncc(cc23)N[C@H]2CCN[C@H]1C2 [a-02-03] | 
31 | 0.012 | 2.33 | CCCOCc1ncc(-c2ccc3ncc4cc3c2OCC(F)CNC(=O)[C@@H]2C[C@H](CC(C)N2C)N4)cn1 (some centres unmarked) [a-02-01] | 
